Results taken from US11180462B2, “Microbiocidal oxadiazole derivatives” (SYNGENTA PARTICIPATIONS AG, priority 2015, dated 2021).

Tests used:
[1] = test system: Puccinia recondita f. Sp. Tritici; experiment: Fungicidal activity against Puccinia recondita f. sp. tritici / wheat / leaf disc preventative (brown rust); type: in vivo; settings: foliar, 200 ppm in the applied formulation, wheat leaf segments, preventative, compared to untreated control leaf disks, read-out: disease control
Procedure, shortened: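 200 ppm spray on wheat cv. Kanzler leaf segments; spore inoculation +1 day; 19° C., 75% rh, 12 h/12 h light cycle; single rating of % control vs untreated at 7 to 9 days.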

[2] = test system: Glomerella lagenarium (Colletotrichum lagenarium); experiment: Fungicidal activity against Glomerella lagenarium (Colletotrichum lagenarium) liquid culture / cucumber / preventative (anthracnose); type: cell-based; settings: Colletotrichum orbiculare; 20 ppm in the applied formulation; liquid culture (PDB), growth inhibition measured photometrically after 3 to 4 days; compared to untreated control; read-out: disease control
Procedure, shortened: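 Percent activity against the untreated check was derived from photometric growth measurements made 2 to 7 days after conidia in potato dextrose broth were combined with compound at 20 ppm. Cultures were kept dark at 24 °C and 96% humidity.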

[3] = test system: Puccinia recondita f. Sp. Tritici; experiment: Fungicidal activity against Puccinia recondita f. sp. tritici / wheat / leaf disc curative (brown rust); type: in vivo; settings: foliar, 24 h, 200 ppm in the applied formulation, wheat leaf segments, curative (applied 1 day after inoculation), compared to untreated control leaf disks, read-out: disease control
Procedure, shortened: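 Segments of wheat cv. Kanzler were laid on agar and inoculated with a spore suspension of the rust, then held in darkness at 19° C and 75% relative humidity. One day later the water-diluted formulated compound was applied, with incubation continued under a 12 h light/dark cycle.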

CCN(CC1CC1)C(=O)N(C)Cc1ccc(-c2noc(C(F)(F)F)n2)cc1 [Compound 3.81, 1-(cyclopropylmethyl)-1-ethyl-3-methyl-3-[[4-[5-(trifluoromethyl)-1,2,4-oxadiazol-3-yl]phenyl]methyl]urea]
≥ 80%: pest or weed control at 200 ppm [1] | inhibition of growth at 20 ppm [2] | pest or weed control at 200 ppm [3]

CC1CC1C(=O)N(Cc1ccc(-c2noc(C(F)(F)F)n2)cc1)Cc1ccco1 (stereo not drawn) [Compound 1.460, N-(2-furylmethyl)-2-methyl-N-[[4-[5-(trifluoromethyl)-1,2,4-oxadiazol-3-yl]phenyl]methyl]-cyclopropane-carboxamide]
≥ 80%: pest or weed control at 200 ppm [1] | inhibition of growth at 20 ppm [2] | pest or weed control at 200 ppm [3]

COCCN(Cc1ccc(-c2noc(C(F)(F)F)n2)cc1)C(C)=O [Compound 1.364, N-(2-methoxyethyl)-N-[[4-[5-(trifluoromethyl)-1,2,4-oxadiazol-3-yl]phenyl]methyl]-acetamide]
≥ 80%: pest or weed control at 200 ppm [1] | inhibition of growth at 20 ppm [2] | pest or weed control at 200 ppm [3]

COCCCC(=O)N(Cc1ccc(-c2noc(C(F)(F)F)n2)cc1)Cc1ccco1 [Compound 1.467, N-(2-furylmethyl)-4-methoxy-N-[[4-[5-(trifluoromethyl)-1,2,4-oxadiazol-3-yl]phenyl]methyl]-butanamide]
≥ 80%: pest or weed control at 200 ppm [1] | inhibition of growth at 20 ppm [2] | pest or weed control at 200 ppm [3]

CON(Cc1ccc(-c2noc(C(F)(F)F)n2)cc1)C(=O)COC(F)F [Compound 1.785, 2-(difuoromethoxy)-N-methoxy-N-[[4-[5-(trifluoromethyl)-1,2,4-oxadiazol-3-yl]phenyl]methyl]-acetamide]
≥ 80%: pest or weed control at 200 ppm [1] | inhibition of growth at 20 ppm [2] | pest or weed control at 200 ppm [3]

CCC(C)N(Cc1ccc(-c2noc(C(F)(F)F)n2)cc1)C(=O)CC1CC1 (stereo not drawn) [Compound 1.375, 2-cyclopropyl-N-sec-butyl-N-[[4-(5-(trifluoromethyl)-1,2,4-oxadiazol-3-yl]phenyl]methyl]-acetamide]
≥ 80%: pest or weed control at 200 ppm [1] | inhibition of growth at 20 ppm [2] | pest or weed control at 200 ppm [3]

COCCN(Cc1ccc(-c2noc(C(F)(F)F)n2)cc1)C(=O)COC(C)=O [Compound 1.348, [2-[2-methoxyethyl-[[4-[5-(trifluoromethyl)-1,2,4-oxadiazol-3-yl]phenyl]methyl]-amino]-2-oxo-ethyl] acetate]
≥ 80%: pest or weed control at 200 ppm [1] | inhibition of growth at 20 ppm [2] | pest or weed control at 200 ppm [3]

CON(Cc1ccc(-c2noc(C(F)(F)F)n2)cc1)C(=O)C(C)NC(C)=O (stereo not drawn) [Compound 1.795, 2-acetamido-N-methoxy-N-[[4-[5-(trifluoromethyl)-1,2,4-oxadiazol-3-yl]phenyl]methyl]-propanamide]
≥ 80%: pest or weed control at 200 ppm [1] | inhibition of growth at 20 ppm [2] | pest or weed control at 200 ppm [3]

CC(C)(C)C(=O)N(Cc1ccc(-c2noc(C(F)(F)F)n2)cc1)CC1CC1 [Compound 1.225, N-(cyclopropylmethyl)-2,2-dimethyl-N-[[4-[5-(trifluoromethyl)-1,2,4-oxadiazol-3-yl]phenyl]methyl]-propanamide]
≥ 80%: pest or weed control at 200 ppm [1] | inhibition of growth at 20 ppm [2] | pest or weed control at 200 ppm [3]

CON(C(=O)C1CSC1)C(C)c1ccc(-c2noc(C(F)(F)F)n2)cc1 (stereo not drawn) [Compound 1.259, N-methoxy-N-[1-[4-[5-(trifluoromethyl)-1,2,4-oxadiazol-3-yl]phenyl]ethyl]-thietane-3-carboxamide]
≥ 80%: pest or weed control at 200 ppm [1] | inhibition of growth at 20 ppm [2] | pest or weed control at 200 ppm [3]

CCN(Cc1ccc(-c2noc(C(F)(F)F)n2)cc1)C(=O)N1CCCC1 [Compound 3.93, N-ethyl-N-[[4-[5-(trifluoromethyl)-1,2,4-oxadiazol-3-yl]phenyl]methyl]-pyrrolidine-1-carboxamide]
≥ 80%: pest or weed control at 200 ppm [1] | inhibition of growth at 20 ppm [2] | pest or weed control at 200 ppm [3]

CON(C(=O)C1CCCCO1)C(C)c1ccc(-c2noc(C(F)(F)F)n2)cc1 (stereo not drawn) [Compound 1.249, N-methoxy-N-[1-[4-[5-(trifluoromethyl)-1,2,4-oxadiazol-3-yl]phenyl]ethyl]-tetrahydropyran-2-carboxamide]
≥ 80%: pest or weed control at 200 ppm [1] | inhibition of growth at 20 ppm [2] | pest or weed control at 200 ppm [3]

COCCC(=O)N(OC)C(C)c1ccc(-c2noc(C(F)(F)F)n2)cc1 (stereo not drawn) [Compound 1.260, N,3-dimethoxy-N-[1-[4-[5-(trifluoromethyl)-1,2,4-oxadiazol-3-yl]phenyl]ethyl]-propanamide]
≥ 80%: pest or weed control at 200 ppm [1] | inhibition of growth at 20 ppm [2] | pest or weed control at 200 ppm [3]

CC=C(C)C(=O)N(CCOC)Cc1ccc(-c2noc(C(F)(F)F)n2)cc1 [Compound 1.330, N-(2-methoxyethyl)-2-methyl-N-[[4-[5-(trifluoromethyl)-1,2,4-oxadiazol-3-yl]phenyl]methyl]-but-2-enamide]
≥ 80%: pest or weed control at 200 ppm [1] | inhibition of growth at 20 ppm [2] | pest or weed control at 200 ppm [3]

COCCN(Cc1ccc(-c2noc(C(F)(F)F)n2)cc1)C(=O)COC [Compound 1.328, 2-methoxy-N-(2-methoxyethyl)-N-[[4-[5-(trifluoromethyl)-1,2,4-oxadiazol-3-yl]phenyl]methyl]-acetamide]
≥ 80%: pest or weed control at 200 ppm [1] | inhibition of growth at 20 ppm [2] | pest or weed control at 200 ppm [3]

COCCN(C)C(=O)N(C)Cc1ccc(-c2noc(C(F)(F)F)n2)cc1 [Compound 3.67, 1-(2-methoxyethyl)-1,3-dimethyl-3-[[4-[5-(trifluoromethyl)-1,2,4-oxadiazol-3-yl]phenyl]methyl]urea]
≥ 80%: pest or weed control at 200 ppm [1] | inhibition of growth at 20 ppm [2] | pest or weed control at 200 ppm [3]

COC(C)C(=O)N(Cc1ccc(-c2noc(C(F)(F)F)n2)cc1)CC1CCCO1 (stereo not drawn) [Compound 1.446, 2-methoxy-N-(tetrahydrofuran-2-ylmethyl)-N-[[4-[5-(trifluoromethyl)-1,2,4-oxadiazol-3-yl]phenyl]methyl]-propanamide]
≥ 80%: pest or weed control at 200 ppm [1] | inhibition of growth at 20 ppm [2] | pest or weed control at 200 ppm [3]

COCC1(N(C)C(=O)N(C)Cc2ccc(-c3noc(C(F)(F)F)n3)cc2)CC1 [Compound 3.76, 1-[1-(methoxymethyl)-cyclopropyl]-1,3-dimethyl-3-[[4-[5-(trifluoromethyl)-1,2,4-oxadiazol-3-yl]phenyl]methyl]urea]
≥ 80%: pest or weed control at 200 ppm [1] | inhibition of growth at 20 ppm [2] | pest or weed control at 200 ppm [3]

CCN(Cc1ccc(-c2noc(C(F)(F)F)n2)cc1)C(=O)N(C)CC#N [Compound 3.88, 1-(cyanomethyl)-3-ethyl-1-methyl-3-[[4-[5-(trifluoromethyl)-1,2,4-oxadiazol-3-yl]phenyl]methyl]urea]
≥ 80%: pest or weed control at 200 ppm [1] | inhibition of growth at 20 ppm [2] | pest or weed control at 200 ppm [3]

C=CCN(Cc1ccc(-c2noc(C(F)(F)F)n2)cc1)C(=O)CNC(C)=O [Compound 1.481, 2-acetamido-N-allyl-N-[[4-[5-(trifluoromethyl)-1,2,4-oxadiazol-3-yl]phenyl]methyl]-acetamide]
≥ 80%: pest or weed control at 200 ppm [1] | inhibition of growth at 20 ppm [2] | pest or weed control at 200 ppm [3]

CCN(Cc1ccc(-c2noc(C(F)(F)F)n2)cc1)C(=O)N(CCOC)CCOC [Compound 3.102, 1-ethyl-3,3-bis(2-methoxyethyl)-1-[[4-[5-(trifluoromethyl)-1,2,4-oxadiazol-3-yl]phenyl]methyl]urea]
≥ 80%: pest or weed control at 200 ppm [1] | inhibition of growth at 20 ppm [2] | pest or weed control at 200 ppm [3]

CC(=O)OCC(=O)N(Cc1ccc(-c2noc(C(F)(F)F)n2)cc1)CC1CCCO1 (stereo not drawn) [Compound 1.435, [2-oxo-2-[tetrahydrofuran-2-ylmethyl-[[4-[5-(trifluoromethyl)-1,2,4-oxadiazol-3-yl]phenyl]methyl]-amino]ethyl] acetate]
≥ 80%: pest or weed control at 200 ppm [1] | inhibition of growth at 20 ppm [2] | pest or weed control at 200 ppm [3]

CON(C(=O)COC(C)=O)C(C)c1ccc(-c2noc(C(F)(F)F)n2)cc1 (stereo not drawn) [Compound 1.270, [2-[methoxy-[1-[4-[5-(trifluoromethyl)-1,2,4-oxadiazol-3-yl]phenyl]ethyl]-amino]-2-oxo-ethyl] acetate]
≥ 80%: pest or weed control at 200 ppm [1] | inhibition of growth at 20 ppm [2] | pest or weed control at 200 ppm [3]

COCCN(CCOC)C(=O)N(C)Cc1ccc(-c2noc(C(F)(F)F)n2)cc1 [Compound 3.84, 1,1-bis(2-methoxyethyl)-3-methyl-3-[[4-[5-(trifluoromethyl)-1,2,4-oxadiazol-3-yl]phenyl]methyl]urea]
≥ 80%: pest or weed control at 200 ppm [1] | inhibition of growth at 20 ppm [2] | pest or weed control at 200 ppm [3]

C=CCN(C)C(=O)N(C)Cc1ccc(-c2noc(C(F)(F)F)n2)cc1 [Compound 3.78, 1-allyl-1,3-dimethyl-3-[[4-[5-(trifluoromethyl)-1,2,4-oxadiazol-3-yl]phenyl]methyl]urea]
≥ 80%: pest or weed control at 200 ppm [1] | inhibition of growth at 20 ppm [2] | pest or weed control at 200 ppm [3]
